Measurements: ChEMBL document CHEMBL6074638, “Stability studies of β-Amino- and β-Hydroxy difluoromethyl ketones in rat serum and rat liver microsomes” (Bioorg Med Chem Lett, 2024)

What was measured:
[1] = Stability in rat serum assessed as parent compound remaining measured after 30 mins by LC-MS analysis; format: ADME, cell-free; conditions: read-out: Stability
[2] = Metabolic stability in rat liver microsomes assessed as parent compound remaining measured after 30 mins in presence of NADPH by LC-MS/MS analysis; format: ADME, Microsome; conditions: read-out: Stability

Structure (SMILES): CC(C)(C)OC(=O)NC(c1ccccc1)C(F)(F)C(=O)c1ccc2c(c1)OCO2 (configuration not stated)
- remaining at 0.5 h [1]: 100%
- remaining at 0.5 h [2]: 2.5%

Structure (SMILES): O=C(c1ccc2ccccc2c1)C(F)(F)C(O)c1cccc(F)c1 (configuration not stated)
- remaining at 0.5 h [1]: 82%
- remaining at 0.5 h [2]: < 1%

Structure (SMILES): CC(C)(C)OC(=O)NC(c1cccc(Br)c1)C(F)(F)C(=O)c1ccc(Cl)cc1 (configuration not stated)
- remaining at 0.5 h [1]: 100%
- remaining at 0.5 h [2]: < 1%

Structure (SMILES): O=C(c1ccc2c(c1)OCO2)C(F)(F)C(O)c1ccccc1 (configuration not stated)
- remaining at 0.5 h [1]: 83.5%
- remaining at 0.5 h [2]: 53%

Structure (SMILES): O=C(c1ccc2c(c1)OCO2)C(F)(F)C(O)c1ccc(Cl)cc1 (configuration not stated)
- remaining at 0.5 h [1]: 85%
- remaining at 0.5 h [2]: 11.5%

Structure (SMILES): O=C(c1ccc(Cl)cc1)C(F)(F)C(NCc1ccccc1)c1ccccc1 (configuration not stated)
- remaining at 0.5 h [1]: 87%
- remaining at 0.5 h [2]: 2%

Structure (SMILES): O=C(c1ccc2ccccc2c1)C(F)(F)C(NCc1ccccc1)c1ccccc1 (configuration not stated)
- remaining at 0.5 h [1]: 85%
- remaining at 0.5 h [2]: 3.5%

Structure (SMILES): O=C(c1ccc(Cl)cc1)C(F)(F)C(O)c1ccccc1 (configuration not stated)
- remaining at 0.5 h [1]: 97%
- remaining at 0.5 h [2]: 98.5%

Structure (SMILES): CC(C)(C)OC(=O)NC(c1ccccc1)C(F)(F)C(=O)c1ccc2ccccc2c1 (configuration not stated)
- remaining at 0.5 h [1]: 71.5%
- remaining at 0.5 h [2]: 4%

Structure (SMILES): O=C(c1ccc2ccccc2c1)C(F)(F)CO
- remaining at 0.5 h [1]: 100%
- remaining at 0.5 h [2]: 41.5%

Structure (SMILES): CC(C)(C)OC(=O)NC(c1ccc(F)cc1)C(F)(F)C(=O)c1ccc(Cl)cc1 (configuration not stated)
- remaining at 0.5 h [1]: 80.5%
- remaining at 0.5 h [2]: < 1%

Structure (SMILES): COc1cc2c(cc1OC)C(C(F)(F)C(=O)c1ccc(C(F)(F)F)cc1)NCC2 (configuration not stated)
- remaining at 0.5 h [1]: 97.5%
- remaining at 0.5 h [2]: 7.5%

Structure (SMILES): CC(C)(C)OC(=O)NC(c1ccc(F)cc1)C(F)(F)C(=O)c1ccc2ccccc2c1 (configuration not stated)
- remaining at 0.5 h [1]: 100%
- remaining at 0.5 h [2]: < 1%

Structure (SMILES): O=C(C12CC3CC(CC(C3)C1)C2)C(F)(F)C(NCc1ccccc1)c1ccccc1 (configuration not stated)
- remaining at 0.5 h [1]: 100%
- remaining at 0.5 h [2]: < 1%

Structure (SMILES): O=C(c1ccc2ccccc2c1)C(F)(F)C(Nc1ccccc1)c1ccccc1 (configuration not stated)
- remaining at 0.5 h [1]: 85%
- remaining at 0.5 h [2]: 1%

Structure (SMILES): CCC/C=C/C(O)C(F)(F)C(=O)C12CC3CC(CC(C3)C1)C2 (configuration not stated)
- remaining at 0.5 h [1]: < 1%
- remaining at 0.5 h [2]: 63%

Structure (SMILES): CC(C)(C)OC(=O)NC(c1cccc(F)c1)C(F)(F)C(=O)c1ccc(Cl)cc1 (configuration not stated)
- remaining at 0.5 h [2]: < 1%

Structure (SMILES): CC(=O)c1ccc(C(O)C(F)(F)C(=O)c2ccc3ccccc3c2)cc1 (configuration not stated)
- remaining at 0.5 h [1]: 86.5%
- remaining at 0.5 h [2]: < 1%

Structure (SMILES): COc1ccc(C(O)C(F)(F)C(=O)c2ccc3ccccc3c2)cc1 (configuration not stated)
- remaining at 0.5 h [1]: 88.5%
- remaining at 0.5 h [2]: < 1%

Structure (SMILES): CC(C)(C)OC(=O)NC(c1ccccc1)C(F)(F)C(=O)c1ccc(Cl)cc1 (configuration not stated)
- remaining at 0.5 h [1]: 99%
- remaining at 0.5 h [2]: < 1%

Structure (SMILES): COc1ccc(C(Nc2ccc(F)cc2)C(F)(F)C(=O)c2ccc3ccccc3c2)cc1 (configuration not stated)
- remaining at 0.5 h [1]: 76%
- remaining at 0.5 h [2]: 2%

Structure (SMILES): CC(C)(C)NC(c1ccccc1)C(F)(F)C(=O)c1ccc2ccccc2c1 (configuration not stated)
- remaining at 0.5 h [1]: 98%
- remaining at 0.5 h [2]: < 1%

Structure (SMILES): COc1ccc(C(Nc2ccccc2)C(F)(F)C(=O)c2ccc3ccccc3c2)cc1 (configuration not stated)
- remaining at 0.5 h [1]: 100%
- remaining at 0.5 h [2]: < 1%

Structure (SMILES): CC(=O)c1ccc(C(O)C(F)(F)C(=O)C23CC4CC(CC(C4)C2)C3)cc1 (configuration not stated)
- remaining at 0.5 h [1]: 73%
- remaining at 0.5 h [2]: 70.5%

Structure (SMILES): COc1ccc(NC(c2ccc(OC)cc2)C(F)(F)C(=O)c2ccc3ccccc3c2)cc1 (configuration not stated)
- remaining at 0.5 h [1]: 100%
- remaining at 0.5 h [2]: 7.5%

Structure (SMILES): CC(C)(C)OC(=O)NC(c1ccc(Cl)cc1)C(F)(F)C(=O)c1ccc2c(c1)OCO2 (configuration not stated)
- remaining at 0.5 h [1]: 89%
- remaining at 0.5 h [2]: 83%

Structure (SMILES): Cc1ccc(NC(c2ccc(F)cc2)C(F)(F)C(=O)c2ccc3ccccc3c2)cc1C (configuration not stated)
- remaining at 0.5 h [1]: 74%
- remaining at 0.5 h [2]: 2%

Structure (SMILES): O=C(c1ccc2ccccc2c1)C(F)(F)C(O)/C=C/c1ccccc1 (configuration not stated)
- remaining at 0.5 h [1]: 90.5%
- remaining at 0.5 h [2]: 75.5%

Structure (SMILES): CC(C)(C)OC(=O)NC(c1ccc(C(F)(F)F)cc1)C(F)(F)C(=O)c1ccc2ccccc2c1 (configuration not stated)
- remaining at 0.5 h [1]: 48.5%
- remaining at 0.5 h [2]: 27%

Structure (SMILES): CC(C)(C)OC(=O)NC(c1ccc(Cl)cc1)C(F)(F)C(=O)c1ccc2ccccc2c1 (configuration not stated)
- remaining at 0.5 h [1]: < 1%
- remaining at 0.5 h [2]: 7.5%

Structure (SMILES): CC(C)(C)OC(=O)NC(c1ccc(Cl)cc1)C(F)(F)C(=O)c1ccc(Cl)cc1 (configuration not stated)
- remaining at 0.5 h [1]: 83%
- remaining at 0.5 h [2]: 3%

Structure (SMILES): COc1ccc(C(O)C(F)(F)C(=O)C23CC4CC(CC(C4)C2)C3)cc1 (configuration not stated)
- remaining at 0.5 h [1]: 66.5%
- remaining at 0.5 h [2]: 85.5%

Structure (SMILES): O=C(c1ccc2ccccc2c1)C(F)(F)C(O)c1ccc(F)cc1 (configuration not stated)
- remaining at 0.5 h [1]: 96.5%
- remaining at 0.5 h [2]: < 1%

Structure (SMILES): O=C(c1cccc(SCc2ccccc2)c1)C(F)(F)C(NCc1ccccc1)c1ccccc1 (configuration not stated)
- remaining at 0.5 h [1]: 97%
- remaining at 0.5 h [2]: 12.5%

Structure (SMILES): O=C(C12CC3CC(CC(C3)C1)C2)C(F)(F)C(O)c1ccc(Cl)cc1 (configuration not stated)
- remaining at 0.5 h [1]: 48.5%
- remaining at 0.5 h [2]: < 1%

Structure (SMILES): CC(C)(C)OC(=O)NC(c1cccc(Br)c1)C(F)(F)C(=O)c1ccc2ccccc2c1 (configuration not stated)
- remaining at 0.5 h [1]: 35.5%
- remaining at 0.5 h [2]: 55%

Structure (SMILES): C/C=C/C=C/C(NCc1ccccc1)C(F)(F)C(=O)c1ccc2ccccc2c1 (configuration not stated)
- remaining at 0.5 h [1]: 100%
- remaining at 0.5 h [2]: 2%

Structure (SMILES): COc1ccc(C(NC(=O)OC(C)(C)C)C(F)(F)C(=O)c2ccc3ccccc3c2)cc1 (configuration not stated)
- remaining at 0.5 h [1]: 61%
- remaining at 0.5 h [2]: 10%

Structure (SMILES): CC(C)(C)OC(=O)NC(c1cccc(F)c1)C(F)(F)C(=O)c1ccc2ccccc2c1 (configuration not stated)
- remaining at 0.5 h [1]: 98%
- remaining at 0.5 h [2]: 5%
